According to PMC11705217, “Substrate preference, RNA binding and active site versatility of Stenotrophomonas maltophilia nuclease SmNuc1, explained by a structural study” (The Febs Journal, 2024):

Target: T1, SmNuc1 (SmNuc1WT) (Stenotrophomonas maltophilia, UniProt B2FSF8)
T1 construct: gene Smlt3806; mature enzyme of 246 residues, 28 kDa, N-terminal Trp27 (native signal removed, expressed with MalE signal peptide), C-terminal His-tag kept, pET303/CT-His, E. coli Lemo21(DE3); three Zn2+ in active site
Experiment: in crystallo cleavage (crystal soak, […]), X-ray structure shows product […]'-GMP
Type: biochemical
Details: pH 6.5; only product 5'-GMP seen in structure 9EMG

`Nc1nc2c(ncn2[C@@H]2O[C@@H]3COP(=O)(O)O[C@H]4[C@@H](O)[C@H](n5cnc6c(=O)[nH]c(N)nc65)O[C@@H]4COP(=O)(O)O[C@H]3[C@H]2O)c(=O)[nH]1` [c‐di‐GMP] was tested, and the “in crystallo cleavage (crystal soak, 5 mM), X-ray structure shows product 5'-GMP” value was “c‐di‐GMP was soaked into a crystal of SmNuc1, resulting in the SmNuc1:GMP* structure”.
